Results published in patent US20190352276A1, “INHIBITORS OF BRUTON'S TYROSINE KINASE” (Joint Stock Company "Biocad", priority 2016, published 2019).
One block for each compound: values may come before it.

Key:
[1] = Stability in human blood plasma; settings: 10 μM in pooled human blood plasma, incubated 4 hours at 37° C.
[2] = test system: Z-138 (mantle cell lymphoma); experiment: Antiproliferative activity, Z-138 cells (Alamar Blue); type: cell-based; settings: Homo sapiens, Table 10, 72 h, average of several tests
Procedure: (§1) Antiproliferative activity of BTK inhibitors was measured in cell-based bioassay on B-cells cultures: Mino (mantle cell lymphoma, ATCC® CRL-3000™), Z-138 (mantle cell lymphoma, ATCC® CRL-3001™) and DOHH2 (follicular lymphoma, Creative Bioarray CSC-C0219) using cell viability reagent Alamar Blue (Invitrogen, #DAL 1100). Cells were cultured in 10% FB S-supplemented (HyClone, #SH3008803/Gibco, #16140-071) RPMI-1640 (PanEco, #S330p) for at least 1 passage after thawing, washed with PBS and passaged in 96-well culture plates (Corning, #3599) with growth medium with 10% FBS (HyClone, #SH3008803/Gibco, #16140-071) and antibiotic (50 μg/ml of gentamicin (Biolot, #1.3.16))≈3*10^4 cells in 50 μl of medium per well.
(§2) The compounds were dissolved in DMSO and diluted with the assay medium to final concentrations ranging from […]. 150 μl of each diluted compound were then added to each well (final concentration of DMSO was less than 1%) and incubated at 37° C. in an incubator under 5% of CO2 for 72 h. After incubation, 20 μl of Alamar Blue reagent (Invitrogen, #DAL1100) were added to each well. The plates were shaked on an orbital shaker (Biosan, Latvia) and then incubated for 14-16 hours at 37° C. in the incubator.
(§3) The number of living cells were estimated, measuring the fluorescence signal at the excitation wavelength (REx) of 540 nm and the emission wavelength (λEm) of 590 nm on a microplate reader (Tecan Infinite M200Pro, Switzerland).
(§4) For each compound, IC50 was calculated using Magellan 7.2 software (Tecan, Switzerland) approximating experimental points by four-parameter logistic model with the optimization by Levenberg-Marquardt.

[3] = Chemical stability in artificial gastric fluid (SGF without enzymes); settings: 10 μM in SGF without enzymes, pH=1.4, 37° C.
[4] = test system: HepG2 cells (hepatocellular carcinoma); experiment: General cytotoxicity on HepG2 cells (CC50; therapeutic index CC50 HepG2/IC50 Mino); type: cell-based; settings: Table 10; therapeutic index
Procedure: (§5) The CC50 values were determined in the test for General cytotoxicity on HepG2 cells (hepatocellular carcinoma, ATCC® HB-8065™). 2*10^4 cells (in 50 μl) per well were seeded in 96-well plates (Corning, #3599) in DMEM medium (PanEco, #S420p), after 24 h of incubation 150 μl of candidate compounds were added to each well in the range of final concentrations from 200 μM to 4 μM and the plate was incubated in a total volume of 200 μl for 72 hours. Viability of the cells was assessed using Alamar Blue dye (Invitrogen, #DAL 1100). CC50 was determined similarly (table 10).
(§6) The relationship between toxic (CC50) and a therapeutic (IC50) effects of the dose is the therapeutic index, which can be expressed as the ratio between CC50 (HepG2) (general cytotoxicity of the candidate) and IC50 (Mino) (antiproliferative activity on the target cells): […]

[5] = as above; type: cell-based; settings: human, HepG2 cells (hepatocellular carcinoma); Table 10; 72 hours, Alamar Blue; average of several tests
Procedure: as §5, §6

[6] = test system: Mino (mantle cell lymphoma); experiment: Antiproliferative activity, Mino cells (Alamar Blue); type: cell-based; settings: Homo sapiens, Table 10, 72 h, average of several tests
Procedure: as §1, §2, §3, §4

[7] = Permeability through the monolayer of Caco-2 cells; type: in vitro ADME; settings: human
Text: Assessment of permeability through the monolayer of Caco-2 cells allows to evaluate the ability of the candidate compounds to penetrate through biological membranes by active and passive transport.
Caco-2, the cells of the intestinal epithelium, had been cultured in transwell plate inserts with the filters (with pores of 0.4 μm, BD Falcon with High Density, #353495) for 21 days, and then the integrity of the monolayer were estimated with Lucifer Yellow dye (Sigma-Aldrich, USA) by standard protocol. When setting the A→B transfer, solutions of test substances were added in a buffer with pH 6.5 (Hanks solution, 10 mM HEPES, 15 mM glucose solution) with the concentration of 10 μM into the upper chamber; the lower chamber was filled with a buffer with pH 7.4 (Hanks solution, 10 mM HEPES, 15 mM glucose solution, 1% BSA). When setting B→A transfer, the upper chamber was filled with the buffer with pH 6.5, and solutions of the test substances were added in the buffer with pH 7.4 at the concentration of 10 μM in the lower chamber. Propranolol was used as a control substance (as it has high permeability).
We used gradient elution (1 mL/min flow rate). We determined the areas of peaks corresponding to the compounds. On the basis of peak areas in the calibration standards we determined the concentration of compound in the initial solution and in the samples from the wells of the upper and lower chambers.
Papp, permeability through the cell layer, was calculated using the following formula:
Papp=(C(t)*V)/(C(0)*t*Area), where
Papp is the effective constant of permeability, m/s V is the volume of solution (0.8 ml in A→B test, 0.2 ml in B→A test), ml Area is the surface area of the membrane (0.33 cm^2), cm^2 t is the time of incubation (7200 sec), sec C(0) is the concentration of the initial solution, μM C(t) is the concentration of the solution after 2 hours (the concentration in the sample from the well of the lower chamber in A→B test; the concentration in the sample from the well of the top chamber in B→A test), μM
The value was calculated with the following formula:
efflux=Papp B-A/Papp A-B, where
Papp A-B is the value of the permeability in the direct test (A→B); Papp B-A is the value of the permeability in the backward test in (B→A).

Amount of substance in the sample, % (stability in human blood plasma) [1]: 87.3%
Amount of substance in the sample in % (chemical stability) [3]: 100%
Compound: C=CC(=O)N1CCC[C@@H](n2nc(-c3ccc(C(=O)Nc4cc(C(F)(F)CCC)ccn4)cc3)c3cncc(F)c32)C1 [BCD-BTK -247, (R)-4-(1-(1-acryloylpiperidin-3-yl)-7-fluoro-1H-pyrazolo[4,3-c]pyridin-3-yl)-N-(4-(1,1-difluorobutyl)pyridin-2-yl)benzamide]

Amount of substance in the sample, % (stability in human blood plasma) [1]: 91.3%
IC50 [2]: > 100 µM
Amount of substance in the sample in % (chemical stability) [3]: 100%
IC50 [6]: 40.1 µM
Compound: C=CC(=O)N1CCC[C@@H](n2nc(-c3ccc(Oc4cncc(C(N)=O)c4)cc3)c3cncc(F)c32)C1 [BCD-BTK-274, (R)-5-(4-(1-(1-acryloylpiperidin-3-yl)-7-fluoro-1H-pyrazolo[4,3-c]pyridin-3-yl)phenoxy)nicotinamide]
CC50 (HepG2)/IC50 (Mino) [4]: 0.95
CC50 at 72 h [5]: 38 µM

Amount of substance in the sample, % (stability in human blood plasma) [1]: 86.7%
IC50 [2]: 35.2 µM
Amount of substance in the sample in % (chemical stability) [3]: 100%
IC50 [6]: 20.6 µM
Compound: C=CC(=O)N1CCC[C@H]1Cn1nc(-c2ccc(Oc3ccncc3)cc2)c2cncc(Cl)c21 [BCD-BTK-263, (S)-1-(2-((7-chloro-3-(4-(pyridin-4-yloxy)phenyl)-1H-pyrazolo[4,3-c]pyridin-1-yl)methyl)pyrrolidin-1-yl)prop-2-en-1-one]
CC50 (HepG2)/IC50 (Mino) [4]: >2.42
CC50 at 72 h [5]: > 50 µM

Amount of substance in the sample, % (stability in human blood plasma) [1]: 97.4%
Amount of substance in the sample in % (chemical stability) [3]: 100%
Compound: CC#CC(=O)N1CCC[C@H](Cn2nc(-c3ccc(C(=O)Nc4ccccn4)cc3)c3cncc(Cl)c32)C1 [BCD-BTK-283, (S)-4-(1-((1-(but-2-ynoyl)piperidin-3-yl)methyl)-7-chloro-1H-pyrazolo[4,3-c]pyridin-3-yl)-N-(pyridin-2-yl)benzamide]

Amount of substance in the sample, % (stability in human blood plasma) [1]: 95.4%
Amount of substance in the sample in % (chemical stability) [3]: 100%
Compound: CC#CC(=O)N1CCC[C@@H]1Cn1nc(-c2ccc(C(=O)Nc3ccccn3)cc2)c2cncc(Cl)c21 [BCD-BTK-269, (R)-4-(1-((1-(but-2-ynoyl)pyrrolidin-2-yl)methyl)-7-chloro-1H-pyrazolo[4,3-c]pyridin-3-yl)-N-(pyridin-2-yl)benzamide]

Amount of substance in the sample, % (stability in human blood plasma) [1]: 90.8%
IC50 [2]: 14.8 µM
IC50 [6]: 3.5 µM
Compound: C=CC(=O)N1CCC[C@@H](n2nc(-c3ccc(C(=O)Nc4ccc(F)cn4)cc3)c3cncc(Cl)c32)C1 [BCD-BTK-212, (R)-4-(1-(1-acryloylpiperidin-3-yl)-7-chloro-1H-pyrazolo[4,3-c]pyridin-3-yl)-N-(5-fluoropyridin-2-yl)benzamide]
CC50 (HepG2)/IC50 (Mino) [4]: 8.01
CC50 at 72 h [5]: 28.1 µM

Amount of substance in the sample, % (stability in human blood plasma) [1]: 91.4%
IC50 [2]: 32.2 µM
IC50 [6]: 21.5 µM
Compound: C=CC(=O)N1CCC[C@@H](n2nc(-c3ccc(-n4ccc(=O)c(C#N)c4)cc3)c3cncc(Cl)c32)C1 [BCD-BTK-208, (R)-1-(4-(1-(1-acryloylpiperidin-3-yl)-7-chloro-1H-pyrazolo[4,3-c]pyridin-3-yl)phenyl)-4-oxo-1,4-dihydropyridine-3-carbonitrile]
CC50 (HepG2)/IC50 (Mino) [4]: 5.21
CC50 at 72 h [5]: 112 µM

More lines, now with the values behind:

Compound: CC#CC(=O)N1CCC[C@@H](n2nc(-c3ccc(C(=O)Nc4ccccn4)cc3)c3cncc(Cl)c32)C1 [BCD-BTK-289, (R)-4-(1-(1-(but-2-ynoyl)piperidin-3-yl)-7-chloro-1H-pyrazolo[4,3-c]pyridin-3-yl)-N-(pyridin-2-yl)benzamide]
Amount of substance in the sample, % (stability in human blood plasma) [1]: 100.0%
IC50 [2]: 8.29 µM
Amount of substance in the sample in % (chemical stability) [3]: 100%
CC50 (HepG2)/IC50 (Mino) [4]: 1.85
CC50 at 72 h [5]: 18.8 µM
IC50 [6]: 10.2 µM

Compound: C=CC(=O)N1CCC[C@@H](n2nc(-c3ccc(C(=O)Nc4cc(C(F)(F)CC)ccn4)cc3)c3c(N)ncc(Cl)c32)C1 [BCD-BTK-231, (R)-4-(1-(1-acryloylpiperidin-3-yl)-4-amino-7-chloro-1H-pyrazolo[4,3-c]pyridin-3-yl)-N-(4-(1,1-difluoropropyl)pyridin-2-yl)benzamide]
Amount of substance in the sample, % (stability in human blood plasma) [1]: 93.1%
IC50 [2]: 3.39 µM
Amount of substance in the sample in % (chemical stability) [3]: 100%
CC50 (HepG2)/IC50 (Mino) [4]: 4.01
CC50 at 72 h [5]: 9.08 µM
IC50 [6]: 2.26 µM
Papp A→B at 2 h, 10 μM ([7]; A→B, 2 h at 37° C.): 9.8 ×10⁻⁶ cm/s
Papp B→A at 2 h, 10 μM ([7]; B→A, 2 h at 37° C.): 1.84 ×10⁻⁶ cm/s
efflux ratio at 2 h, 10 μM ([7]; read-out: efflux (Papp B-A/Papp A-B)): 0.19

Compound: CC#CC(=O)N1CC[C@@H](n2nc(-c3ccc(Oc4ccncc4)cc3)c3cncc(Cl)c32)C1 [BCD-BTK-265, (R)-1-(3-(7-chloro-3-(4-(pyridin-4-yloxy)phenyl)-1H-pyrazolo[4,3-c]pyridin-1-yl)pyrrolidin-1-yl)but-2-yn-1-one]
Amount of substance in the sample, % (stability in human blood plasma) [1]: 81.7%
IC50 [2]: 16.6 µM
Amount of substance in the sample in % (chemical stability) [3]: 94.8%
CC50 (HepG2)/IC50 (Mino) [4]: 2.09
CC50 at 72 h [5]: 16.5 µM
IC50 [6]: 7.91 µM

Compound: C=CC(=O)N1CCC[C@@H](n2nc(-c3ccc(C(=O)Nc4ccc(F)cn4)cc3)c3c(N)ncc(Cl)c32)C1 [BCD-BTK -237, 4-{4-amino-7-chloro-1-[(3R)-1-(prop-2-enoyl)piperidin-3-yl]-1H-pyrazolo[4,3-c]pyridin-3-yl}-N-(5-fluoropyridin-2-yl)benzamide]
Amount of substance in the sample, % (stability in human blood plasma) [1]: 95.5%
Amount of substance in the sample in % (chemical stability) [3]: 100%

Compound: CC#CC(=O)N1CC(Cn2nc(-c3ccc(C(=O)Nc4ccccn4)cc3)c3cncc(Cl)c32)C1 [BCD-BTK-267, 4-(1-((1-(but-2-ynoyl)azetidin-3-yl)methyl)-7-chloro-1H-pyrazolo[4,3-c]pyridin-3-yl)-N-(pyridin-2-yl)benzamide]
Amount of substance in the sample, % (stability in human blood plasma) [1]: 100.0%
Amount of substance in the sample in % (chemical stability) [3]: 100%

Compound: CC#CC(=O)N1CCC[C@@H](Cn2nc(-c3ccc(C(=O)Nc4ccccn4)cc3)c3cncc(Cl)c32)C1 [BCD-BTK-278, (R)-4-(1-((1-(but-2-ynoyl)piperidin-3-yl)methyl)-7-chloro-1H-pyrazolo[4,3-c]pyridin-3-yl)-N-(pyridin-2-yl)benzamide]
Amount of substance in the sample, % (stability in human blood plasma) [1]: 96.2%
Amount of substance in the sample in % (chemical stability) [3]: 100%
